Patent US12077501B2, “Compounds and compositions for intracellular delivery of agents” (ModernaTX, Inc., priority 2017, dated 2024)

Tests used:
[1] = pKa of nanoparticle compositions; type: physicochemical
[2] = Lipid clearance: % dose remaining in liver of CD-1 mice; type: in vivo; conditions: intravenous, 0.5 mg/kg, CD-1 mouse, Table 8a
Excerpt: In contrast, hEPO expression in rats induced by administration of a nanoparticle composition including a compound according to one of formulae (I), (Ia1)-(Ia6), (Ib), (II), (IIa), (III), and (IIIa) was substantially […] than that measured for MC3. […] Tables 7c and 7d show additional protein expressions and clearance data from compositions with various compounds disclosed herein as compared to with MC3. Tables 7e, 7f and 7g show hEPO expression data in CD-1 mice at a dose of 0.5 mpk.

[3] = Particle size and polydispersity index of nanoparticle compositions (Zetasizer Nano ZS); type: physicochemical; conditions: summary of Table 1
Protocol: A Zetasizer Nano ZS (Malvem Instruments Ltd, Malvem, Worcestershire, UK) can be used to determine the particle size, the polydispersity index (PDI) and the zeta potential of the nanoparticle compositions in 1×PBS in determining particle size and 15 mM PBS in determining zeta potential.

[4] = Encapsulation efficiency of RNA (QUANT-IT RIBOGREEN RNA assay); type: physicochemical; conditions: summary of Table 1
Protocol: For nanoparticle compositions including an RNA, a QUANT-IT™ RIBOGREEN® RNA assay (Invitrogen Corporation Carlsbad, CA) can be used to evaluate the encapsulation of an RNA by the nanoparticle composition. The samples are diluted to a concentration of approximately 5 μg/mL in a TE buffer solution (10 mM Tris-HCl, 1 mM EDTA, pH 7.5). 50 μL of the diluted samples are transferred to a polystyrene 96 well plate and either 50 μL of TE buffer or 50 μL of a 2% Triton X-100 solution is added to the wells. The plate is incubated at a temperature of 37° C. for 15 minutes. The RIBOGREEN® reagent is diluted 1:100 in TE buffer, and 100 μL of this solution is added to each well. The fluorescence intensity can be measured using a fluorescence plate reader (Wallac Victor 1420 Multilablel Counter; Perkin Elmer, Waltham, MA) at an excitation wavelength of, for example, about 480 nm and an emission wavelength of, for example, about 520 nm. The fluorescence values of the reagent blank are subtracted from that of each of the samples and the percentage of free RNA is determined by dividing the fluorescence intensity of the intact sample (without addition of Triton X-100) by the fluorescence value of the disrupted sample (caused by the addition of Triton X-100).

pKa ([1]; Table 1b)	% Dose Remaining 6 hr [2]	% Dose Remaining 24 hr [2]	SMILES	also measured
7.56	16.99%	14.36%	CCCCCCCCCN(CCCC(=O)OCCCCC)CCC(=O)N1CCN(C(=O)CCN(CCCCCCCCC)CCN(CCCCCCCCC)CCCCCCCCC)CC1 [Compound 62, Pentyl 4-((3-(4-(3-((2-(dinonylamino)ethyl)(nonyl)amino)propanoyl)piperazin-1-yl)-3-oxopropyl)(nonyl)amino)butanoate]	–
6.65	68.53%	64.75%	CCCCCCCCCN(CCCCCCCCC)CCC1CCCN(C(=O)CN(CCCCCCCCC)CCN(CCCCCCCCC)CCCCCCCCC)C1 (stereo not drawn) [Compound 73, 2-((2-(Dinonylamino)ethyl)(nonyl)amino)-1-(3-(2-(dinonylamino)ethyl)piperidin-1-yl)ethan-1-one]	–
6.74	52.40%	53.65%	CCCCCCCCCN(CCCCCCCCC)CCCC1CCN(C(=O)CCN(CCCCCCCCC)CCN(CCCCCCCCC)CCCCCCCCC)CC1 [Compound 85, 3-((2-(Dinonylamino)ethyl)(nonyl)amino)-1-(4-(3-(dinonylamino)propyl)piperidin-1-yl)propan-1-one]	–

The next lines start with the molecule.

SMILES	pKa ([1]; Table 1b)	% Dose Remaining 6 hr [2]	% Dose Remaining 24 hr [2]	also measured
CCCCCCCCCN(CCCOC(=O)CCCCC)CCCC1CCN(C(=O)CCN(CCCCCCCCC)CCN(CCCCCCCCC)CCCCCCCCC)CC1 [Compound 87, 3-((3-(1-(3-((2-(Dinonylamino)ethyl)(nonyl)amino)propanoyl)piperidin-4-yl)propyl)(nonyl)amino)propyl Hexanoate]	6.79	0.07%	0.05%	–
CCCCCCCCCN(CCCC(=O)OCCCCC)CCC1CCN(C(=O)CN(CCCCCCCCC)CCN(CCCCCCCCC)CCCCCCCCC)C1 (stereo not drawn) [Compound 81, Pentyl 4-((2-(1-(N-(2-(dinonylamino)ethyl)-N-nonylglycyl)pyrrolidin-3-yl)ethyl)(nonyl)amino)butanoate]	7.22	15.28%	19.27%	–
CCCCC/C=C\C/C=C\CCCCCCCCN(CCCCCCCC/C=C\C/C=C\CCCCC)CCN(CCCCCCCC/C=C\C/C=C\CCCCC)CCN1CCN(CCN(CCCCCCCCCCCC)CCCCCCCCCCCC)CC1 [Compound 34, N^1-(2-(4-(2-(Didodecylamino)ethyl)piperazin-1-yl)ethyl)-N^1,N^2,N^2-tri((9Z,12Z)-octadeca-9,12-dien-1-yl)ethane-1,2-diamine]	–	–	–	particle size ranking amongst the compositions of Tables 1 and 1a [3]: smallest particles
CCCCCCCCCN(CCCCCCCCC)CCN(CCCCCCCCC)CC(=O)N1CCN(C(=O)CN(CCCCCCCCC)CCCCC(=O)OCCCC)CC1 [Compound 55, Butyl 5-((2-(4-(N-(2-(dinonylamino)ethyl)-N-nonylglycyl)piperazin-1-yl)-2-oxoethyl)(nonyl)amino)pentanoate]	6.96	–	–	–
CCCCCCCCCN(CCCCCCCCC)CCN(CCCCCCCCC)CC(=O)N1CCC(CN(CCCCCCCCC)CCCC(=O)OCCCCC)C1 (stereo not drawn) [Compound 82, Pentyl 4-(((1-(N-(2-(dinonylamino)ethyl)-N-nonylglycyl)pyrrolidin-3-yl)methyl)(nonyl)amino)butanoate]	7.05	37.85%	38.66%	–
CCCCCCCCCN(CCCOC(=O)CC(C)CCC)CCC1CCN(C(=O)CN(CCCCCCCCC)CCN(CCCCCCCCC)CCCCCCCCC)CC1 (stereo not drawn) [Compound 133, 3-((2-(1-(N-(2-(Dinonylamino)ethyl)-N-nonylglycyl)piperidin-4-yl)ethyl)(nonyl)amino)propyl 3-methylhexanoate]	–	–	13.02%	pKa ([1]; Table 1c): 6.58
CCCCCCCCCN(CCCCCCCCC)CCN(CCCCCCCCC)CC(=O)N1CCN(C(=O)CN(CCCC(=O)OCCCCC)CCCC(=O)OCCCCC)CC1 [Compound 72, Dipentyl 4,4′-((2-(4-(N-(2-(dinonylamino)ethyl)-N-nonylglycyl)piperazin-1-yl)-2-oxoethyl)azanediyl)dibutyrate]	7.19	–	–	–
CCCCCCCCCN(CCCCCCCCC)CCN(CCCCCCCCC)CCC1CCN(C(=O)CN(CCCCCCCCC)CCCCCCCCC)CC1 [Compound 50, 2-(Dinonylamino)-1-(4-(2-((2-(dinonylamino)ethyl)(nonyl)amino)ethyl)piperidin-1-yl)ethan-1-one]	–	–	–	particle size ranking amongst the compositions of Tables 1 and 1a [3]: smallest particles
CCCCCCCCCN(CCCCCCCCC)CCN(CCCCCCCCC)CCN1CCNCC1 [Compound 36, N^1,N^1,N^2-Trinonyl-N^2-(2-(piperazin-1-yl)ethyl)ethane-1,2-diamine]	–	–	–	encapsulation efficiency ranking amongst the compositions of Tables 1 and 1a [4]: highest
CCCCC/C=C\CCCCCN(CCCCCCCCCCCC)CCN1CCN(CCN(CCCCCCCCCCCC)CCN(CCCCCCCCCCCC)CCCCCCCCCCCC)CC1 [Compound 24, (Z)—N^1-(2-(4-(2-(Dodec-6-en-1-yl(dodecyl)amino)ethyl)piperazin-1-yl)ethyl)-N^1,N^2,N^2-tridodecylethane-1,2-diamine]	–	–	–	encapsulation efficiency ranking amongst the compositions of Tables 1 and 1a [4]: lowest
CCCCCCCCCCCCN(CCCCCCCCCCCC)CCN1CCN(CCN(CCCCCCCCCCCC)C(=O)CN(CCCCCCCCCCCC)CCCCCCCCCCCC)CC1 [Compound 1, 2-(Didodecylamino)-N-(2-(4-(2-(didodecylamino)ethyl)piperazin-1-yl)ethyl)-N-dodecylacetamide]	–	–	–	encapsulation efficiency ranking amongst the compositions of Tables 1 and 1a [4]: lowest; particle size ranking amongst the compositions of Tables 1 and 1a [3]: largest particles
CCCCCCCC/C=C\CCCCCCCCN(CCCCCCCC/C=C\CCCCCCCC)CCN(CCCCCCCC/C=C\CCCCCCCC)CCN1CCNCC1 [Compound 40, N^1,N^1,N^2-Tri((Z)-octadec-9-en-1-yl)-N^2-(2-(piperazin-1-yl)ethyl)ethane-1,2-diamine]	–	–	–	encapsulation efficiency ranking amongst the compositions of Tables 1 and 1a [4]: highest
CCCCCCCCCCCCN(CCCCCCCCCCCC)CCN(CCCCCCCCCCCC)CCN1CCNCC1 [Compound 37, N^1,N^1,N^2-Tridodecyl-N^2-(2-(piperazin-1-yl)ethyl)ethane-1,2-diamine]	–	–	–	encapsulation efficiency ranking amongst the compositions of Tables 1 and 1a [4]: highest
CCCCCCCCCN(CCCC(=O)OCCCCC)CCC1CCCN(C(=O)CN(CCCCCCCCC)CCN(CCCCCCCCC)CCCCCCCCC)C1 (stereo not drawn) [Compound 80, Pentyl 4-((2-(1-(N-(2-(dinonylamino)ethyl)-N-nonylglycyl)piperidin-3-yl)ethyl)(nonyl)amino)butanoate]	6.78	23.78%	25.25%	–
CCCCCCCCCN(CCCCCCCCC)CCN(CCCCCCCCC)CC(=O)N1CCN(C(=O)CN(CCCCCCCCC)CCCCCCC(=O)OCC)CC1 [Compound 53, Ethyl 7-((2-(4-(N-(2-(dinonylamino)ethyl)-N-nonylglycyl)piperazin-1-yl)-2-oxoethyl)(nonyl)amino)heptanoate]	6.91	–	–	–
CCCCCCCCCN(CCCCCCCC(=O)OC)CCC1CCN(C(=O)CN(CCCCCCCCC)CCN(CCCCCCCCC)CCCCCCCCC)CC1 [Compound 57, Methyl 8-((2-(1-(N-(2-(dinonylamino)ethyl)-N-nonylglycyl)piperidin-4-yl)ethyl)(nonyl)amino)octanoate]	6.73	–	–	–
CCCCC/C=C\C/C=C\CCCCCCCCN(CCCCCCCC/C=C\C/C=C\CCCCC)CCN(CCCCCCCC/C=C\C/C=C\CCCCC)CCN1CCNCC1 [Compound 41, N^1,N^1,N^2-Tri((9Z,12Z)-octadeca-9,12-dien-1-yl)-N^2-(2-(piperazin-1-yl)ethyl)ethane-1,2-diamine]	–	–	–	encapsulation efficiency ranking amongst the compositions of Tables 1 and 1a [4]: highest
CCCCCCCCCN(CCCCCC(=O)OCCC)CCC1CCN(C(=O)CN(CCCCCCCCC)CCN(CCCCCCCCC)CCCCCCCCC)CC1 [Compound 59, Propyl 6-((2-(1-(N-(2-(dinonylamino)ethyl)-N-nonylglycyl)piperidin-4-yl)ethyl)(nonyl)amino)hexanoate]	6.68	–	–	–
CCCCCCCCCN(CCCCCCCCC)CCN(CCCCCCCCC)CC(=O)N1CCN(C(=O)CN(CCCCCCCCC)CCCCCC(=O)OCCC)CC1 [Compound 54, Propyl 6-((2-(4-(N-(2-(dinonylamino)ethyl)-N-nonylglycyl)piperazin-1-yl)-2-oxoethyl)(nonyl)amino)hexanoate]	6.88	–	–	–
CCCCCCCCCN(CCCCCCC(=O)OCC)CCC1CCN(C(=O)CN(CCCCCCCCC)CCN(CCCCCCCCC)CCCCCCCCC)CC1 [Compound 58, Ethyl 7-((2-(1-(N-(2-(dinonylamino)ethyl)-N-nonylglycyl)piperidin-4-yl)ethyl)(nonyl)amino)heptanoate]	6.7	–	–	–
